Columns and labels:
CRTH2 [1] = molecular target: T1, CRTH2 (Homo sapiens, UniProt Q9Y5Y4); assay: DPBS CD11b antagonist assay (CD11b expression in eosinophils); type: cell-based; settings: challenged with 10 nM 15R-Methyl-PGD2, read-out: CD11b Antag IC50(nM) [HuEos-DPBS-vs10nM15R]
T1 sequence (Q9Y5Y4 1-395): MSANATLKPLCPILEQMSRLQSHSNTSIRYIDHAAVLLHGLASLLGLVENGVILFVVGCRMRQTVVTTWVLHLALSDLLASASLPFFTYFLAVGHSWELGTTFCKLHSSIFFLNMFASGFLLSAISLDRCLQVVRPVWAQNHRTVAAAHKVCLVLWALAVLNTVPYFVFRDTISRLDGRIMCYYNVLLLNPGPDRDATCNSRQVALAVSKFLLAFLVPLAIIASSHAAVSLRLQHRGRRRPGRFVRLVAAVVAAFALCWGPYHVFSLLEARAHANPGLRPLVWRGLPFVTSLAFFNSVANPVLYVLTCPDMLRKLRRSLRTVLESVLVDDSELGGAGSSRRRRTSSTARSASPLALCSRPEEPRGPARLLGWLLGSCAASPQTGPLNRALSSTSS
Description: DPBS CD11b Antagonist Assay.
The potential CRTH2 antagonist activity of certain compounds was tested using a CD11b expression assay using essentially the method described by Monneret et al. (J Pharmacol Exp Ther 304:349-55, 2003). Briefly, polymorphonuclear cells (0.5 ml; 10^6/ml cells) in PBS containing 0.9 mM CaCl2 and 0.5 mM MgCl2) were preincubated with various concentrations of test compounds at room temperature for 10 minutes before they were challenged with the agonist 15R-Methyl-PGD2 (10 nM). The incubations were terminated by the addition of ice-cold FACSFlow (BD Biosciences; Cat# 342003) and centrifugation (400 g for 5 minutes at 4° C.). The cells were then incubated for 30 minutes at 4° C. with a mixture of PE-labeled mouse anti-human VLA-4 (5 μl; BD Biosciences) and FITC-labeled mouse anti-human CD11b (10 μl; Beckman Coulter). The cells were then incubated with Optilyse C (0.25 ml; Beckman Coulter) for 15 minutes, centrifuged, and then fixed in PBS (0.4 ml; calcium and magnesium free) containing 1% formaldehyde. The distribution of fluorescence intensities among 60,000 cells was measured by flow cytometry. Eosinophils were gated out on the basis of their granularity (high side scatter) and labeling with VLA-4 (PE fluorescence). CD11b was then measured in the eosinophil region on the basis of fluorescence due to FITC. All data were corrected for the value obtained for the corresponding isotope control antibody.

CRTH2 [2] = molecular target: T1, CRTH2; assay: Human whole blood CD11b antagonist assay (CD11b expression in eosinophils); type: cell-based; design: endogenous in cells; host or cells: eosinophils in human whole blood; settings: challenged with 10 nM 15R-Methyl-PGD2, read-out: CD11b Antag IC50(nM) [HuEos-HuWB-vs10nM15R]
Description: Human Whole Blood CD11B Antagonist Assay (Modified from Nicholson, et al. Pulmonary Pharmacology and Therapeutics: 20 (2007); 52-59).
The potential CRTH2 antagonist activity of certain compounds was tested in human whole blood using an assay that tests the ability of the compounds to block the CD11b expression in eosinophils by 15-R-methyl-PGD2. A CRTH2 antagonist should block CD11b expression by subsequently added 15-Methyl-PGD2. Human whole blood (200 μL) was incubated at 37° C. for 10 minutes in the presence of various concentrations of test compounds before being challenged with the agonist 15R-Methyl-PGD2 (10 nM). Reactions were terminated by the addition of ice-cold PBS+0.5% BSA+2 mMEDTA (1 mL) and centrifugation (300×g for 5 minutes at 4° C.) Cells were then incubated at 4° C. for 10 min in the presence of human IgG. Cells were then incubated for 30-45 min with a mixture of PE-Cy5-labeled mouse anti-human CD16 (10 ul; BD Biosciences) and FITC-labeled mouse anti-human CD11b (10 μL; Beckman Coulter.) After rinsing (1 mL ice-cold PBS+0.5% BSA+2 mMEDTA), red blood cells were lysed by the addition of 1 mL ice-cold H2O to the cell pellet for 30 sec-1 min immediately followed by the addition of 3.5% NaCl (300 μL.) Cells were then rinsed (2×-1 ml ice cold PBS+0.5% BSA+2 mMEDTA) and fixed in PBS containing 1% formaldehyde. The distribution of fluorescence intensities was measured by flow cytometry. Eosinophils were gated out on the basis of their granularity (high side scatter) and absence of CD-16. CD11b was then measured on this eosinophil population on the basis of fluorescence due to FITC.

| IC50 (CRTH2 [1]) [nM] | IC50 (CRTH2 [2]) [nM] | Compound |
| --- | --- | --- |
| > 500 | > 500 | CCOC(=O)Cn1c(C)c(C#N)c(Cc2ccccc2S(=O)(=O)N2CCCC2)c1C [I-63, Ethyl 2-(3-cyano-2,5-dimethyl-4-(2-(pyrrolidin-1-ylsulfonyl)benzyl)-1H-pyrrol-1-yl)acetate] |
| 100 to 500 | > 500 | Cc1nn(CC(=O)O)c(C)c1Cc1ccccc1S(=O)(=O)N1CCCC1 [I-72, 2-(3,5-dimethyl-4-(2-(pyrrolidin-1-ylsulfonyl)benzyl)-1H-pyrazol-1-yl)acetic acid] |

From patent US8674115B2, “CRTH2 modulators” (Ironwood Pharmaceuticals, Inc., priority 2009, dated 2014)
